Results from US7855292B2, “Sulfonamide compounds” (Janssen Pharmaceutica NV, priority 2004, dated 2010).

Target: T1, CCK-1 receptor (Homo sapiens, UniProt P32238)
T1 construct: expressed in transfected cells; host or cells: CHO-K1
T1 sequence (P32238 1-428): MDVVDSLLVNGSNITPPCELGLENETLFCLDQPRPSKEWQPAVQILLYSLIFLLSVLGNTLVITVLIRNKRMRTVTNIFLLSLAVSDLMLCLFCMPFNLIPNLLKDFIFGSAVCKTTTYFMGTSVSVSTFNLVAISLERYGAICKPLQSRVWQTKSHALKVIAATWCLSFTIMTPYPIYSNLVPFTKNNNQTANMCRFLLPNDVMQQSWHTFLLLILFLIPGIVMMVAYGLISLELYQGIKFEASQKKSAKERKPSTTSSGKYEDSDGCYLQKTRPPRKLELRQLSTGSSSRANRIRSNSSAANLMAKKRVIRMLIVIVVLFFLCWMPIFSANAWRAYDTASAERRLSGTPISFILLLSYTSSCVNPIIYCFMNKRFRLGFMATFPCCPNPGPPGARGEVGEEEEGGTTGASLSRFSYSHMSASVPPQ
Experiment: CCK1 binding assay ([125I]-BH-CCK-8S displacement, CHO-K1 membranes)
Details: membranes of CHO-K1 cells stably transfected with the CCK-1 receptor; 20 pM [125I]-BH-CCK-8S; 0.3 μM PD-134,308 present; 60 min at 21±3° C.
In short: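 Membranes from CHO-K1 cells stably expressing CCK-1 incubated 1 h at 21±3° C with 20 pM [125I]-BH-CCK-8S in HEPES buffer pH 7.2 containing 0.3 μM PD-134,308 to block CCK-2. Bound radioactivity read by gamma counting after filtration. pKi derived via Cheng-Prusoff, with specific binding defined using 2-NAP.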

- CCK1 pKi: 6.7
SMILES: O=C(N[C@@H](Cc1ccc(Cl)c(Cl)c1)C(=O)O)c1ccc(I)cc1NS(=O)(=O)c1cccc2nsnc12 [Example 2, (S)-2-[2-(Benzo[1,2,5]thiadiazole-4-sulfonylamino)-4-iodo-benzoylamino]-3-(3,4-dichloro-phenyl)-propionic acid]
